Experimental findings from US8222281B2, “Carboxylic acid compound” (Daiichi Sankyo Company, Limited, priority 2008, dated 2012) are described below.

In the first test the test system is genetically obese impaired glucose tolerance rats (Crlj:ZUC-Lepr^fa/Lepr^fa rats). Kind of test: Oral glucose tolerance test. The class given is in vivo. To be noted: Rattus norvegicus, 0.5 h; dose 0.3 mg/kg oral; glucose 2 g/kg oral 30 minutes after compound; blood glucose 30 minutes after glucose loading; vs control group; read-out: Blood glucose lowering index (%). As to the method: Oral Glucose Tolerance Test
Commercially available genetically obese impaired glucose tolerance rats (Crlj:ZUC-Lepr^fa/Lepr^fa rats, male, 11 weeks of age at the time of use, purchased from Charles River Laboratories Japan, Inc.)
(2) Experimental Method and Results
The rats were preliminarily reared for 2 weeks by feeding them laboratory chow (FR-2, Funabashi Farm Co., Ltd.) ad libitum. Then, the rats were fasted for 15 to 18 hours and used as test animals. A suspension was prepared such that the concentration of a test compound fell within a range from 0.075 to 0.25 mg/mL using a 0.5% solution of methyl cellulose (Wako Pure Chemical Industries, Ltd.). The test compound was orally administered by gavage to the rats (6 rats in each group) at a dose of 0.3 to 1 mg/kg. To the rats in the control group, a 0.5% solution of methyl cellulose was orally administered at a dose of 4 mL/kg. The oral glucose loading was performed such that a glucose solution (Otsuka Glucose Injection 50%, Otsuka Pharmaceutical Co., Ltd.) was orally administered at a dose of 2 g/kg after 30 minutes from administration of the test compound.
The blood was collected from the tail vein of each rat, and the blood glucose level was measured after 30 minutes from the oral glucose loading using a fully automatic blood glucose meter (Glucoroder GXT, A& T Corporation), and the blood glucose lowering index (%) was calculated from the following equation.
Blood glucose lowering index (%)=[1−(blood glucose level in test compound administration group)/(blood glucose level in control group)]×100
For `CCO[C@@H](CC(=O)O)c1ccc(O[C@@H]2COc3c(OC(F)(F)F)cccc32)cc1` [Example 55, (3S)-3-Ethoxy-3-(4-{[(3S)-7-(trifluoromethoxy)-2,3-dihydro-1-benzofuran-3-yl]oxy}phenyl)propionic acid], the inhibition in vivo at 0.3 mg/kg is 38%. On the same count and under the same terms, to `CCO[C@@H](CC(=O)O)c1ccc(O[C@@H]2CCc3c2ccc(F)c3C(F)(F)F)cc1` [Example 56, (3S)-3-Ethoxy-3-(4-{[(1R)-5-fluoro-4-(trifluoromethyl)-2,3-dihydro-1H-inden-1-yl]oxy}phenyl)-propionic acid] belongs 40%; to `CCO[C@@H](CC(=O)O)c1ccc(O[C@@H]2CCc3c(C(F)F)cccc32)cc1` [Example 59, (3S)-3-(4-{[(1R)-4-(Difluoromethyl)-2,3-dihydro-1H-inden-1-yl]oxy}phenyl)-3-ethoxypropionic acid], 32%. Regarding `CCO[C@@H](CC(=O)O)c1ccc(O[C@@H]2CCc3c2cc(F)cc3C(F)(F)F)cc1` [Example 61, (3S)-3-Ethoxy-3-(4-{[(1R)-6-fluoro-4-(trifluoromethyl)-2,3-dihydro-1H-inden-1-yl]oxy}phenyl)-propionic acid], the inhibition in vivo at 0.3 mg/kg worked out at 34%. For the molecule `CCO[C@@H](CC(=O)O)c1ccc(O[C@@H]2CCc3c(C)cc(C)cc32)cc1` [Example 62, (3S)-3-(4-{[(1R)-4,6-Dimethyl-2,3-dihydro-1H-inden-1-yl]oxy}phenyl)-3-ethoxypropionic acid], the inhibition in vivo at 0.3 mg/kg came to 33%. For the molecule `CCO[C@@H](CC(=O)O)c1ccc(O[C@@H]2CCc3c(C4CC4)cccc32)cc1` [Example 64, (3S)-3-(4-{[(1R)-4-Cyclopropyl-2,3-dihydro-1H-inden-1-yl]oxy}phenyl)-3-ethoxypropionic acid], the inhibition in vivo at 0.3 mg/kg is 30%.

Staying with this test, now noted: Rattus norvegicus, 0.5 h; dose 1 mg/kg oral; glucose 2 g/kg oral 30 minutes after compound; blood glucose 30 minutes after glucose loading; vs control group; read-out: Blood glucose lowering index (%).
On to `CCOC(CC(=O)O)c1ccc(OCc2ccc(Cl)c(Cl)c2)cc1` (centres unmarked) [Example 1, 3-{4-[(3,4-Dichlorobenzyl)oxy]phenyl}-3-ethoxypropionic acid], for which the inhibition in vivo at 1 mg/kg turned out to be 25%.

`CCO[C@@H](CC(=O)O)c1ccc(OCc2ccc(Cl)c(Cl)c2)cc1` [Example 16, (3S)-3-{4-[(3,4-Dichlorobenzyl)oxy]phenyl}-3-ethoxypropionic acid]: the inhibition in vivo at 1 mg/kg amounted to 39%.

As to `CCOC(CC(=O)O)c1ccc(OCc2ccc(C(F)(F)F)cc2)nc1` (centres unmarked) [Example 17, 3-Ethoxy-3-(6-{[4-(trifluoromethyl)benzyl]oxy}pyridin-3-yl)propionic acid], the inhibition in vivo at 1 mg/kg stood at 38%. As for `CCO[C@@H](CC(=O)O)c1ccc(OCc2ccc(C(F)(F)F)cc2)nc1` [Example 18, (3S)-3-Ethoxy-3-(6-{[4-(trifluoromethyl)benzyl]oxy}pyridin-3-yl)propionic acid], the inhibition in vivo at 1 mg/kg is 35%. In the case of `CCOC(CC(=O)O)c1ccc(OCc2ccccc2C)cc1` (centres unmarked) [Example 20, 3-Ethoxy-3-{4-[(2-methylbenzyl)oxy]phenyl}propionic acid], the inhibition in vivo at 1 mg/kg is 15%.

In the case of `CCOC(CC(=O)O)c1ccc(Oc2ccc(C#N)c3ccccc23)cc1` (centres unmarked) [Example 23, 3-{4-[(4-Cyano-1-naphthyl)oxy]phenyl}-3-ethoxypropionic acid], the inhibition in vivo at 1 mg/kg came to 16%. Consider `CCOC(CC(=O)O)c1ccc(Oc2cc(Cl)cc(Cl)c2)cc1` (centres unmarked) [Example 24, 3-[4-(3,5-Dichlorophenoxy)phenyl]-3-ethoxypropionic acid], for which the inhibition in vivo at 1 mg/kg stood at 37%. Turning to `CCOC(CC(=O)O)c1ccc(Oc2cc(Cl)ccc2Cl)cc1` (centres unmarked) [Example 25, 3-[4-(2,5-Dichlorophenoxy)phenyl]-3-ethoxypropionic acid], the inhibition in vivo at 1 mg/kg was 39%. For the molecule `CCO[C@@H](CC(=O)O)c1ccc(OCc2ccc(C(F)(F)F)cc2)cc1` [Example 49, (3S)-3-Ethoxy-3-(4-{[4-(trifluoromethyl)benzyl]oxy}phenyl)propionic acid], the inhibition in vivo at 1 mg/kg came to 37%. Take `CCO[C@@H](CC(=O)O)c1ccc(O[C@@H]2CCc3c(Cl)cccc32)cc1` [Example 50, (3S)-3-(4-{[(1R)-4-Chloro-2,3-dihydro-1H-inden-1-yl]oxy}phenyl)-3-ethoxypropionic acid]: the inhibition in vivo at 1 mg/kg is 38%. On the same count and under the same terms, to `CCO[C@@H](CC(=O)O)c1ccc(O[C@@H]2CCc3c2cccc3C(F)(F)F)cc1` [Example 51, (3S)-3-Ethoxy-3-(4-{[(1R)-4-(trifluoromethyl)-2,3-dihydro-1H-inden-1-yl]oxy}phenyl)propionic acid] belongs 42%. For the molecule `CCO[C@@H](CC(=O)O)c1ccc(O[C@H]2CCc3c(Cl)cccc32)cc1` [Example 52, (3S)-3-(4-{[(1S)-4-Chloro-2,3-dihydro-1H-inden-1-yl]oxy}phenyl)-3-ethoxypropionic acid], the inhibition in vivo at 1 mg/kg worked out at 15%. As to `CCO[C@@H](CC(=O)O)c1ccc(OC2CCc3c2cccc3C(F)(F)F)cc1` (stereo partly drawn) [Example 53, (3S)-3-Ethoxy-3-(4-{[4-(trifluoromethyl)-2,3-dihydro-1H-inden-1-yl]oxy}phenyl)propionic acid], the inhibition in vivo at 1 mg/kg stood at 41%. Consider `CCO[C@@H](CC(=O)O)c1ccc(O[C@@H]2CCc3c(CC)cccc32)cc1` [Example 57, (3S)-3-Ethoxy-3-(4-{[(1R)-4-ethyl-2,3-dihydro-1H-inden-1-yl]oxy}phenyl)propionic acid], for which the inhibition in vivo at 1 mg/kg is 50%. As to `CCO[C@@H](CC(=O)O)c1ccc(O[C@@H]2CCc3c(C)cccc32)cc1` [Example 58, (3S)-3-Ethoxy-3-(4-{[(1R)-4-methyl-2,3-dihydro-1H-inden-1-yl]oxy}phenyl)propionic acid], the inhibition in vivo at 1 mg/kg turned out to be 35%. In the case of `CCO[C@@H](CC(=O)O)c1ccc(O[C@@H]2COc3c2cccc3C(F)(F)F)cc1` [Example 60, (3S)-3-Ethoxy-3-(4-{[(3S)-7-(trifluoromethyl)-2,3-dihydro-1-benzofuran-3-yl]oxy}phenyl)propionic acid], the inhibition in vivo at 1 mg/kg was 48%.

As for `CCO[C@@H](CC(=O)O)c1ccc(O[C@@H]2CCc3c(OC(F)(F)F)cccc32)cc1` [Example 63, (3S)-3-Ethoxy-3-(4-{[(1R)-4-(trifluoromethoxy)-2,3-dihydro-1H-inden-1-yl]oxy}phenyl)propionic acid], the inhibition in vivo at 1 mg/kg amounted to 45%.
